Among the data in PubChem BioAssay (NCI) are TGI and GI50 values, retold here.

“And” between values parts separate entries of the source, which are not always exact repeats. Identical values can stand only once.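 Dose response: 5 concentrations. Exposure: 48 h. Format: 96-well plates. Endpoint: linear interpolation; highest concentration if not reached. GI50: concentration for 50% inhibition of growth. TGI is the concentration that stops growth completely.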

Some test systems named below: SNB-78 CNS; M19-MEL melanoma; MDA-MB-231 breast; RXF-631 renal; XF 498 CNS; MDA-N.
Assay in all cases: NCI anticancer screen, dose series, 48 h

With `O=c1c2cc(Br)cc(Br)c2nc(CCCl)n1-c1ccc(O)c([N+](=O)[O-])c1`, the results for the TGI in the assay with SNB-78 CNS and with M19-MEL melanoma were 62.3 µM and 29.8 µM, respectively.

`Cc1cc(-c2nnc(/C=C/c3ccc4c(c3)OCO4)o2)n[nH]1`: in the assay with MDA-MB-231 breast, the GI50 is 16.9 µM and the TGI is over 50 µM.

Turning to `COc1cc(Cl)cc(-c2nn(-c3cccc(NC(=O)Nc4cccc(C(F)(F)F)c4)c3)cc2-c2ccncc2)c1`, in the assay on MDA-MB-231 breast, the GI50 is 1.59 µM and the TGI came out at 4.91 µM.

On to `CNCC/C=C1\c2cc3c(cc2-c2c1c1cc(OC)c(OC)cc1c(=O)n2C)OCO3`, for which, in the assay with MDA-MB-231 breast, the GI50 is 1.78 µM and the TGI turned out to be 13.6 µM.

Turning to `O=C1/C(=C/c2ccc3c(c2)OCCO3)CCC/C1=C\c1ccc2c(c1)OCCO2`, the TGI with SNB-78 CNS is over 100 µM; in the assay on M19-MEL melanoma it was 81.9 µM.

Take `COc1ccc(/C(C)=N/NC(=O)CSc2nc3ccccc3c(=O)n2CCc2ccc(S(N)(=O)=O)cc2)cc1`: in the assay on MDA-MB-231 breast, the GI50 was 1.87 µM and the TGI came to 3.88 µM.

Regarding `CCCCCCCCCC[C@@H](O)[C@@H]1CC[C@@H]([C@@H]2CC[C@@H]([C@@H](O)CCCCCCCCCC[C@H](O)CC3=CC(C)OC3=O)O2)O1` (stereo not given in full), the TGI in the assay on SNB-78 CNS was 56.2 µM; in the assay with MDA-MB-231 breast, 24.6 µM; in the assay on M19-MEL melanoma, over 100 µM; with RXF-631 renal, 19.4 µM. In addition, in the assay on MDA-MB-231 breast, the GI50 was 8.01 µM.

Regarding `C1OC1CN1CCN(CC2CO2)CC1` (stereo not given), the TGI with SNB-78 CNS, with XF 498 CNS and in the assay on M19-MEL melanoma was over 100 µM each time.

Take `CC1(C)CCCC2(C)C3C(O)CC2(C)C(O)C31` (stereo not given): the TGI in the assay on SNB-78 CNS, in the assay on XF 498 CNS and in the assay with M19-MEL melanoma was over 100 µM in each case.

With `O=C1CC[C@H](N2Cc3c(OCc4ccc(CN5CCOCC5)cc4)cccc3C2=O)C(=O)N1`, in the assay with MDA-MB-231 breast, the GI50 was over 100 µM and the TGI is over 100 µM.

Consider `CCOC(=O)C(=O)Nc1cc(Cl)c(Cl)cc1Cl`, for which the TGI in the assay on SNB-78 CNS, in the assay with M19-MEL melanoma and with RXF-631 renal was over 100 µM throughout.

As to `Nc1nonc1-c1nc2ccccc2n1Cc1ccc(F)cc1`, in the assay with MDA-MB-231 breast, the GI50 was 6.84 µM and the TGI is over 100 µM.

Consider `O=C(O)[C@@H]1OCCOCCO[C@@H](C(=O)O)[C@H](C(=O)O)OCCOCCO[C@H]1C(=O)O`, for which the TGI in the assay on SNB-78 CNS, in the assay on XF 498 CNS and in the assay on M19-MEL melanoma was over 100 µM throughout.

`N#CC1=C(N)NC(=S)NC1c1ccc(-c2ccc(-c3nc4ccccc4o3)cc2)s1` (stereo not given): in the assay on MDA-MB-231 breast, the GI50 was 7.16 µM and the TGI was 16.4 µM.

On to `CC1=C(C(=O)NCc2ccccc2)C(c2ccc(Cl)c(Cl)c2)C(C(=O)NCc2ccccc2)=C(C)N1`, for which the TGI with SNB-78 CNS, with XF 498 CNS and with M19-MEL melanoma was over 100 µM each time.

Consider `N#Cc1c(-c2ccccc2)cc(-c2ccc(N)cc2)[nH]c1=O`, for which the TGI with SNB-78 CNS, in the assay with M19-MEL melanoma and with RXF-631 renal was over 100 µM each time.

As for `N#COc1ccc(Oc2ccccc2)cc1`, the TGI in the assay with SNB-78 CNS, in the assay on XF 498 CNS and in the assay on M19-MEL melanoma was over 100 µM in each case.

Take `COc1ccc(C(C)c2cc(OC)c(OC)c(OC)c2)cc1` (stereo not given): in the assay on MDA-MB-231 breast, the GI50 was 0.341 µM and the TGI is over 50 µM.

Take `CC1=C(/C=C/C(=O)CC(=O)/C=C/C2=C(C)CCCC2(C)C)C(C)(C)CCC1`: in the assay with MDA-MB-231 breast, the GI50 is 52.3 µM and the TGI was over 100 µM.

As to `O=C(NCCc1ccccc1)Nc1ccc2cc3ccc(NC(=O)NCCc4ccccc4)cc3nc2c1`, in the assay with MDA-MB-231 breast, the GI50 is 1.35 µM and the TGI amounted to 2.75 µM.

In the case of `CN1CCN(c2ccc(OC(F)(F)F)c(Nc3ncc4c(n3)-c3c(c(C(N)=O)nn3CCO)CC4)c2)CC1`, in the assay with MDA-MB-231 breast, the GI50 is 0.0755 µM and 0.059 µM; the TGI is 8.61 µM and 3.23 µM.

Consider `C/C=C/C/C=C/[C@H](C)C[C@H](O)[C@@H]1C[C@@H]2O[C@H]2/C=C/[C@@H]2OC(C)(C)O[C@H]2/C=C/C[C@H](C)CC(=O)O1`, for which, in the assay with MDA-MB-231 breast, the GI50 was 36.1 µM and the TGI was over 100 µM.

Turning to `O=S(=O)(NCCNc1nccc(-c2c(-c3ccc(F)c(O)c3)nc3sccn23)n1)c1ccc(Cl)cc1`, in the assay with MDA-MB-231 breast, the GI50 was 2.98 µM and the TGI was found to be 24.1 µM.

In the case of `Nc1c(C(=O)Nc2ccccn2)sc2nc3c(cc12)C(O)CCC3` (stereo not given), in the assay on MDA-MB-231 breast, the GI50 is 18.3 µM and the TGI was over 50 µM.

For `CCO/S(=N/S(=O)(=O)c1ccccc1)c1ccccc1[N+](=O)[O-]` (stereo not given), the TGI in the assay with XF 498 CNS and in the assay with M19-MEL melanoma was over 100 µM in each case.

For `CCN(CC)c1c(-c2ccccc2)n[nH]c1C(=O)OC`, in the assay with MDA-MB-231 breast, the GI50 was 35.8 µM and the TGI worked out at 60.4 µM.

`CC(=O)Oc1ccc2c(c1)[C@@]1(C)CCCC(C)(C)[C@@H]1CC2`: in the assay with MDA-MB-231 breast, the GI50 was 17.8 µM and the TGI is 34.2 µM.

As to `N#Cc1cnc2cc(OC[C@@H](O)CO)c(NC(=O)C3CCCC3)cc2c1Nc1ccc(OCc2cccc(F)c2)c(Cl)c1`, in the assay with MDA-MB-231 breast, the GI50 is 0.74 µM and the TGI came out at 1.82 µM.

Consider `[N-]=[N+]=NCCCn1c2c(c3ccc([N+](=O)[O-])cc3c1=O)C(=O)c1cc3c(cc1-2)OCO3`, for which, in the assay on MDA-MB-231 breast, the GI50 is 0.828 µM and the TGI amounted to 12.3 µM.

For `COc1cccc(-c2nn(-c3ccccc3)cc2-c2ccnc(NCCCNC(=O)c3cccc(C(F)(F)F)c3)c2)c1`, in the assay on MDA-MB-231 breast, the GI50 is 3.86 µM and the TGI amounted to 25.7 µM.

In the case of `O=c1[nH]c2cc([N+](=O)[O-])ccc2nc1/C(=N/Nc1ccccc1)C(O)c1ccco1` (stereo not given), the TGI with XF 498 CNS, with M19-MEL melanoma and in the assay with RXF-631 renal was over 100 µM each time.

For `Cc1cc(N(CCC#N)CCC#N)ccc1N=Nc1cc(Cl)ccc1Cl`, the results for the TGI with SNB-78 CNS and with M19-MEL melanoma were 22 µM and 26.6 µM, respectively.

In the case of `C=CC(COC(=O)C(C)(C)OC(C)=O)c1ccc(OC(=O)C(C)C)c(OC)c1` (stereo not given), the TGI in the assay on MDA-N is 14 µM; in the assay on MDA-MB-231 breast, 9.36 µM.

For the compound `C=C1c2ccccc2C(=O)c2c1c1c(C(=O)OC)c(OC(=O)OCc3ccc([N+](=O)[O-])cc3)ccc1n2Cc1ccccc1`, in the assay with MDA-MB-231 breast, the GI50 is 18.3 µM and the TGI stood at 65.6 µM.

In turn, `Cc1coc2c1C(=O)C(=O)c1ccccc1-2` returned a TGI in the assay with SNB-78 CNS of 3.13 µM.
